Legend:
[1] = test system: galium (catchweed bedstraw, Galium aparine); test: Test A postemergence, galium; assay type: in vivo; settings: post-emergence, 240 h, 0 to 100 scale, 10 days, read-out: Plant response rating, Galium; for pest or weed control at 31 g/ha: 31 g ai/ha; for pest or weed control at 125 g/ha: 125 g ai/ha
From the text: (§1) Seeds of plant species selected from barnyardgrass (Echinochloa crus-galli), blackgrass (Alopecurus myosuroides), corn (Zea mays), foxtail, giant (giant foxtail, Setaria faberi), goosegrass (Eleusine indica), kochia (Bassia scoparia), oat, wild (wild oat, Avena fatua), pigweed, palmer (palmer amaranth, Amaranthus palmeri), pigweed, redroot (redroot pigweed, Amaranthus retroflexus), ragweed (common ragweed, Ambrosia artemisiifolia), ryegrass, Italian (Italian ryegrass, Lolium multiflorum), soybean (Glycine max), and wheat (Triticum aestivum) were planted into a blend of loam soil and sand and treated preemergence with a directed soil spray using test chemicals formulated in a non-phytotoxic solvent mixture which included a surfactant.
(§2) At the same time, plants selected from these crop and weed species and also galium (catchweed bedstraw, Galium aparine) and horseweed (Erigeron canadensis) were planted in pots containing the same blend of loam soil and sand and treated with postemergence applications of test chemicals formulated in the same manner. Plants ranged in height from 2 to 10 cm and were in the one- to two-leaf stage for the postemergence treatment. Treated plants and untreated controls were maintained in a greenhouse for 10 days, after which time all treated plants were compared to untreated controls and visually evaluated for injury. Plant response ratings, summarized in Table A, are based on a 0 to 100 scale where 0 is no effect and 100 is complete control. A dash (-) response means no test result.

[2] = test system: ducksalad (Heteranthera limosa); test: Test B flooded paddy test, ducksalad; assay type: in vivo; settings: 250 g ai/ha, Flood, scale of 0 to 100 where 0 is no effect and 100 is complete control, visually evaluated after 10 to 14 days, read-out: Plant response rating, Ducksalad
Protocol: (§3) Plant species in the flooded paddy test selected from barnyardgrass (Echinochloa crusgalli), ducksalad (Heteranthera limosa), rice (Oryza sativa), and sedge, umbrella (small-flower umbrella sedge, Cyperus difformis) were grown to the 2-leaf stage for testing. At time of treatment, test pots were flooded to 3 cm above the soil surface, treated by application of test compounds directly to the paddy water, and then maintained at that water depth for the duration of the test. Treated plants and controls were maintained in a greenhouse for 10 to 14 days, after which time all species were compared to controls and visually evaluated. Plant response ratings, summarized in Table B, are based on a scale of 0 to 100 where 0 is no effect and 100 is complete control. A dash (-) response means no test result.

kochia (Bassia scoparia) = test: Test A preemergence, kochia; assay type: in vivo; settings: pre-emergence, 240 h, 0 to 100 scale, 10 days, read-out: Plant response rating, Kochia; for pest or weed control at 31 g/ha: 31 g ai/ha; for pest or weed control at 125 g/ha: 125 g ai/ha
From the text: as §1, §2

[3] = test system: barnyardgrass (Echinochloa crusgalli); test: Test B flooded paddy test, barnyardgrass; assay type: in vivo; settings: Echinochloa crus-galli; 250 g ai/ha, Flood; scale of 0 to 100 where 0 is no effect and 100 is complete control; visually evaluated after 10 to 14 days; read-out: Plant response rating, Barnyardgrass
Protocol: as §3

[4] = test system: ryegrass, Italian (Italian ryegrass, Lolium multiflorum); test: Test A preemergence, Italian ryegrass; assay type: in vivo; settings: pre-emergence, 240 h, 0 to 100 scale, 10 days, read-out: Plant response rating, Ryegrass, Italian; for pest or weed control at 31 g/ha: 31 g ai/ha; for pest or weed control at 125 g/ha: 125 g ai/ha
From the text: as §1, §2

rice (Oryza sativa) = test: Test B flooded paddy test, rice; assay type: in vivo; settings: 250 g ai/ha, Flood, scale of 0 to 100 where 0 is no effect and 100 is complete control, visually evaluated after 10 to 14 days, read-out: Plant response rating, Rice
Protocol: as §3

[5] = test system: sedge, umbrella (small-flower umbrella sedge, Cyperus difformis); test: Test B flooded paddy test, umbrella sedge; assay type: in vivo; settings: 250 g ai/ha, Flood, scale of 0 to 100 where 0 is no effect and 100 is complete control, visually evaluated after 10 to 14 days, read-out: Plant response rating, Sedge, Umbrella
Protocol: as §3

[6] = test system: ragweed (common ragweed, Ambrosia artemisiifolia); test: Test A postemergence, ragweed; assay type: in vivo; settings: post-emergence, 240 h, 0 to 100 scale, 10 days, read-out: Plant response rating, Ragweed; for pest or weed control at 31 g/ha: 31 g ai/ha; for pest or weed control at 125 g/ha: 125 g ai/ha
From the text: as §1, §2

[7] = test system: foxtail, giant (giant foxtail, Setaria faberi); test: Test A postemergence, giant foxtail; assay type: in vivo; settings: post-emergence, 240 h, 0 to 100 scale, 10 days, read-out: Plant response rating, Foxtail, Giant; for pest or weed control at 31 g/ha: 31 g ai/ha; for pest or weed control at 125 g/ha: 125 g ai/ha
From the text: as §1, §2

corn (Zea mays) = test: Test A preemergence, corn; assay type: in vivo; settings: 0 to 100 scale, 10 days
From the text: as §1, §2

[8] = test system: oat, wild (wild oat, Avena fatua); test: Test A preemergence, wild oat; assay type: in vivo; settings: 0 to 100 scale, 10 days
From the text: as §1, §2

SMILES | melting point | pest or weed control at 31 g/ha [1] | pest or weed control at 125 g/ha [1] | pest or weed control at 250 g/ha [2] | pest or weed control at 31 g/ha (kochia (Bassia scoparia)) | pest or weed control at 125 g/ha (kochia (Bassia scoparia)) | pest or weed control at 250 g/ha [3] | pest or weed control at 31 g/ha [4] | pest or weed control at 125 g/ha [4] | plant injury at 250 g/ha (rice (Oryza sativa)) | pest or weed control at 250 g/ha [5] | pest or weed control at 31 g/ha [6] | pest or weed control at 125 g/ha [6] | pest or weed control at 31 g/ha [7] | pest or weed control at 125 g/ha [7] | Plant response rating, Corn (corn (Zea mays); 31 g ai/ha) | Plant response rating, Corn (corn (Zea mays); 125 g ai/ha) | Plant response rating, Oat, Wild ([8]; 31 g ai/ha) | Plant response rating, Oat, Wild ([8]; 125 g ai/ha)
Cc1cc(C)c(N(COC(=O)C(C)(C)C)S(=O)(=O)C(F)(F)F)cc1N1CCC(OC2CCCC2)C1=O (centres unmarked) [Compound 5, [[5-[3-(cyclopentyloxy)-2-oxo-1-pyrrolidinyl]-2,4-dimethylphenyl][(trifluoromethyl)sulfonyl]amino]methyl 2,2-dimethylpropanoate] | – | 60% | 90% | 95% | 0% | 60% | 95% | 20% | 90% | 0% | 85% | 60% | 80% | 0% | 80% | 0 | 20 | 0 | 40
Cc1cc(C)c(N2CCC(OC3CCCC3)C2=O)cc1NS(=O)(=O)C(F)(F)F (centres unmarked) [Compound 6, N-[5-[3-(cyclopentyloxy)-2-oxo-1-pyrrolidinyl]-2,4-dimethylphenyl]-1,1,1-trifluoromethanesulfonamide] | – | 80% | 90% | 85% | 30% | 90% | 30% | 80% | 90% | 10% | 75% | 60% | 90% | 10% | 60% | 30 | 80 | 70 | 90
Cc1cc(C)c(N(COC(=O)C(C)(C)C)S(=O)(=O)C(F)(F)F)cc1N1CCC(OC2CC2)C1=O (centres unmarked) [Compound 7, [[5-[3-(cyclopropyloxy)-2-oxo-1-pyrrolidinyl]-2,4-dimethylphenyl][(trifluoromethyl)sulfonyl]amino]methyl 2,2-dimethylpropanoate] | – | 90% | 100% | 95% | 60% | 100% | 98% | 100% | 100% | 30% | 90% | 90% | 90% | 60% | 90% | 0 | 50 | 20 | 100
Cc1cc(C)c(N(COC(=O)C(C)(C)C)S(=O)(=O)C(F)(F)F)cc1N1CCC(OC2CCC2)C1=O (centres unmarked) [Compound 8, [[5-[3-(cyclobutyloxy)-2-oxo-1-pyrrolidinyl]-2,4-dimethylphenyl][(trifluoromethyl)sulfonyl]amino]methyl 2,2-dimethylpropanoate] | – | 100% | 100% | 95% | 0% | 100% | 98% | 50% | 90% | 35% | 95% | 70% | 90% | 30% | 80% | 0 | 10 | 0 | 70
Cc1cc(C)c(N2CC/C(=N\O)C2=O)cc1NS(=O)(=O)C(F)(F)F [Compound 10, 1,1,1-trifluoro-N-[5-[3-(hydroxyimino)-2-oxo-1-pyrrolidinyl]-2,4-dimethylphenyl]methanesulfonamide] | 213 to 216 °C | – | – | – | – | – | – | – | – | – | – | – | – | – | – | – | – | – | –
CCO/N=C1\CCN(c2cc(NS(=O)(=O)C(F)(F)F)c(C)cc2C)C1=O [Compound 12, N-[5-[3-(ethoxyimino)-2-oxo-1-pyrrolidinyl]-2,4-dimethylphenyl]-1,1,1-trifluoromethanesulfonamide] | 201 to 204 °C | – | – | – | – | – | – | – | – | – | – | – | – | – | – | – | – | – | –
C#CCO/N=C1\CCN(c2cc(NS(=O)(=O)C(F)(F)F)c(C)cc2C)C1=O [Compound 13, N-[2,4-dimethyl-5-[2-oxo-3-[(2-propyn-1-yloxy)imino]-1-pyrrolidinyl]phenyl]-1,1,1-trifluoromethanesulfonamide] | 175 to 178 °C | – | – | – | – | – | – | – | – | – | – | – | – | – | – | – | – | – | –

Further lines, with some results ahead:

melting point | SMILES | pest or weed control at 31 g/ha [1] | pest or weed control at 125 g/ha [1] | pest or weed control at 250 g/ha [2] | pest or weed control at 31 g/ha (kochia (Bassia scoparia)) | pest or weed control at 125 g/ha (kochia (Bassia scoparia)) | pest or weed control at 250 g/ha [3] | pest or weed control at 31 g/ha [4] | pest or weed control at 125 g/ha [4] | plant injury at 250 g/ha (rice (Oryza sativa)) | pest or weed control at 250 g/ha [5] | pest or weed control at 31 g/ha [6] | pest or weed control at 125 g/ha [6] | pest or weed control at 31 g/ha [7] | pest or weed control at 125 g/ha [7] | Plant response rating, Corn (corn (Zea mays); 31 g ai/ha) | Plant response rating, Corn (corn (Zea mays); 125 g ai/ha) | Plant response rating, Oat, Wild ([8]; 31 g ai/ha) | Plant response rating, Oat, Wild ([8]; 125 g ai/ha)
164 to 167 °C | C#CCOC1CCN(c2cc(NS(=O)(=O)C(F)(F)F)c(C)cc2C)C1=O (centres unmarked) [Compound 1, N-[2,4-dimethyl-5-[2-oxo-3-(2-propyn-1-yloxy)-1-pyrrolidinyl]phenyl]-1,1,1-trifluoromethanesulfonamide] | 80% | 100% | 80% | 70% | 100% | 60% | 100% | 100% | 30% | 90% | 60% | 80% | 40% | 60% | – | – | – | –
134 to 137 °C | C=CCOC1CCN(c2cc(NS(=O)(=O)C(F)(F)F)c(C)cc2C)C1=O (centres unmarked) [Compound 2, N-[2,4-dimethyl-5-[2-oxo-3-(2-propen-1-yloxy)-1-pyrrolidinyl]phenyl]-1,1,1-trifluoromethanesulfonamide] | 80% | 100% | 75% | 50% | 90% | 40% | 90% | 100% | 10% | 85% | 50% | 70% | 30% | 50% | – | – | – | –
171 to 174 °C | Cc1cc(C)c(N2CCC(OC3CC3)C2=O)cc1NS(=O)(=O)C(F)(F)F (centres unmarked) [Compound 3, N-[5-[3-(cyclopropyloxy)-2-oxo-1-pyrrolidinyl]-2,4-dimethylphenyl]-1,1,1-trifluoromethanesulfonamide] | 70% | 100% | 98% | 100% | 100% | 90% | 90% | 100% | 50% | 98% | 80% | 90% | 70% | 90% | 90 | 90 | 70 | 100
184 to 187 °C | C=CCO/N=C1\CCN(c2cc(NS(=O)(=O)C(F)(F)F)c(C)cc2C)C1=O [Compound 11] | – | – | – | – | – | – | – | – | – | – | – | – | – | – | – | – | – | –

— US20240158348A1, “HERBICIDAL CYCLIC AMIDES N-SUBSTITUTED WITH A HALOALKYLSULFONYLANILIDE GROUP” (FMC Corporation, priority 2021, published 2024)
